From PMC6359675, “Functionalization of the Chalcone Scaffold for the Discovery of Novel Lead Compounds Targeting Fungal Infections” (Molecules, 2019)
Several values for one entry are separate records, joined by “and”; a condition that tells them apart may be missing. Equal values may be shown once. Read-outs that look alike come from different tables or passages of the source.

Experiments:
[1] = Cytotoxicity test on Vero cells (WST8/CCK-8 cell viability); assay type: cell-based, African green monkey; settings: African green monkey, Vero cells (ATCC CCL-81), Vero cells, mean and 95% confidence interval
Method: (§1) African green monkey kidney cells (Vero ATCC CCL-81) were cultured in Eagle’s Minimal Essential Medium (MEM) (Sigma-Aldrich), supplemented with 10% fetal bovine serum (FBS) (Carlo Erba Reagents, Milan, Italy), 100 U/mL penicillin, and 100 µg/mL streptomycin at 37 °C with 5% CO2. For experiments, cells were seeded into 96-well plates at 10^4 cells/well, and incubated at 37 °C for 24 h. Following washes with PBS, cell monolayer was incubated with 100 µL of serially 2-fold dilution of the compound in the range 200–6.25 µM. Both untreated cells and cells incubated with medium containing solvent dilutions were included in each experiment as controls.
(§2) The cell viability was assessed by a WST8-based assay according to the manufacturer’s instructions (CCK-8, Cell Counting Kit-8, Dojindo Molecular Technologies, Rockville, MD, USA). After 72 h of incubation, culture medium was removed from each well, the monolayer was washed with PBS, and 100 µL of fresh medium containing 10 µL of CCK-8 solution were added. Following a 2 h at 37 °C, the absorbance was measured at 450/630 nm; data were calculated as the percentage of the cell viability relative to the untreated controls.

[2] = test system: Vero cells (ATCC CCL-81); assay: as above; assay type: cell-based, African green monkey; settings: 72 h, up to the highest concentration of 200 μM
Method: as §1, §2

[3] = test system: C. albicans ATCC 10231; assay: In vitro susceptibility testing, microdilution broth (EUCAST), C. albicans control strain; assay type: cell-based, Candida albicans; settings: for IC50 / inhibition at 100 µM: Candida albicans; for IC50: ATCC10231, C. albicans ATCC 10231, mean and 95% confidence interval; for inhibition at 100 µM: ATCC10231, 24 h; for inhibition at 100 µM / antifungal activity against C. albicans growth, in words: C. albicans ATCC 10231; for antifungal activity against C. albicans growth, in words: screen at 100 μM
Method: (§3) The in vitro antifungal activity of the chalcones was evaluated by a microdilution broth method in accordance with the guidelines provided by the EUCAST Edef 7.3 [22]. Briefly, all strains were cultured on Sabauraud dextrose, then inocula, prepared at 0.5 McFarland, were diluted 1:20 in RPMI-1640 medium (Gibco®, ThermoFisher Scientific Inc., Waltham, MA, USA), containing glucose 2%, 0.3% levo-glutamine buffered to pH 7.0 with 0.165 M 3-(N-morpholino)propanesulfonic acid (MOPS) to yield 1-5 × 10^5 cells/mL. A total of 100 µL of the yeast suspension was inoculated in a 96-well microplate and incubated with 100 µL of serially 2-fold dilution of the compound in the range 200–6.25 µM. The following controls were included: yeast suspensions incubated in RPMI-1640 culture medium (positive growth control), or supplemented with dilutions of DMSO, or fluconazole (Sigma-Aldrich, St. Louis, MO, USA) as a commercial drug. To check the background turbidity of reagents and the sterility of the procedure, dilutions of each compound were incubated in RPMI-1640 culture medium, without yeast inoculum. The inoculated plate was incubated at 37 °C for 24 h, and subsequently the optical density at 630 nm was measured by the Multiskan Ascent microplate reader (Thermo Fisher Scientific Inc.). The effectiveness of the compounds was expressed as percent inhibition relative to the positive growth control when the inhibition […] the 50% at 100 µM. The IC50 value was determined by interpolation of the dose–response curves generated by plotting the percentages of growth inhibition, relative to the drug-free control (set to 100% of growth), as a function of the tested concentrations (on a logarithm scale). Statistical analysis was carried out by the nonlinear regression method using GraphPad Prism version 5.0 for Windows (GraphPad Software, San Diego, CA, USA). All assays were performed in triplicate and at least two independent experiments were carried out.

[4] = test system: C. lusitaniae; assay: In vitro susceptibility testing, C. lusitaniae clinical isolate; assay type: cell-based; settings: Clavispora lusitaniae; clinical isolate; read-out: IC50 C. lusitaniae
From the text: (§4) The yeasts included in the present study were Candida albicans ATCC 10231 (American Type Culture Collection) and a collection of yeasts recovered from a variety of clinical specimens, i.e., blood, urine, genital swabs, bronchoalveolar lavage, nail specimens, collected at the Microbiology Unit, St. Orsola Malpighi University Hospital, Bologna, Italy. The clinical strain isolates were identified by standard procedures, including colony morphology on chromogenic agar (CHROMagar Candida medium, Becton Dickinson, Heidelberg, Germany) and confirmed by MALDI Biotyper System using matrix-assisted laser desorption ionization–time of flight mass spectrometry (MALDI-TOF MS, Bruker Daltonik, GmbH, Germany).
as §3

[5] = test system: R. mucilaginosa; assay: In vitro susceptibility testing, R. mucilaginosa clinical isolate; assay type: cell-based; settings: clinical isolate; read-out: IC50 R. mucilaginosa
From the text: as §4, §3

[6] = test system: C. neoformans; assay: In vitro susceptibility testing, C. neoformans clinical isolate; assay type: cell-based; settings: Cryptococcus neoformans; clinical isolate; read-out: IC50 C. neoformans
From the text: as §4, §3

[7] = test system: C. glabrata; assay: In vitro susceptibility testing, C. glabrata clinical isolate; assay type: cell-based; settings: Nakaseomyces glabratus; clinical isolate; read-out: IC50 C. glabrata
From the text: as §4, §3

[8] = test system: C. utilis; assay: In vitro susceptibility testing, C. utilis clinical isolate; assay type: cell-based; settings: Williopsis jadinii; clinical isolate; read-out: IC50 C. utilis
From the text: as §4, §3

[9] = test system: C. krusei; assay: In vitro susceptibility testing, C. krusei clinical isolate; assay type: cell-based; settings: Pichia kudriavzevii; clinical isolate; read-out: IC50 C. krusei
From the text: as §4, §3

[10] = test system: C. parapsilosis; assay: In vitro susceptibility testing, C. parapsilosis clinical isolate; assay type: cell-based; settings: Lodderomyces parapsilosis; clinical isolate; read-out: IC50 C. parapsilosis
From the text: as §4, §3

[11] = test system: C. albicans; assay: In vitro susceptibility testing, C. albicans clinical isolate; assay type: cell-based; settings: Candida albicans; clinical isolate; mean and 95% confidence interval; read-out: IC50 C. albicans
From the text: as §4, §3

[12] = test system: S. clavata; assay: In vitro susceptibility testing, S. clavata clinical isolate; assay type: cell-based; settings: clinical isolate; read-out: IC50 S. clavata
From the text: as §4, §3

[13] = test system: C. tropicalis; assay: In vitro susceptibility testing, C. tropicalis clinical isolate; assay type: cell-based; settings: Candida tropicalis; clinical isolate; read-out: IC50 C. tropicalis
From the text: as §4, §3

For `CC(C)=CCOc1ccc(C(=O)/C=C/c2cccnc2)c(O)c1` [Compound 20], the CC50 at 72 h ([1]; read-out: CC50) was 54.3 µM, the CC50 at 72 h ([1]; read-out: CC50 [μg/mL]) was 15.9 µg/mL and the “toxicity on Vero cells, in words” value [2] was “moderately toxic”. It also gave an IC50 ([3]; read-out: IC50) of 16.8 µM, an IC50 ([3]; read-out: IC50 [μg/mL]) of 4.9 µg/mL and an inhibition at 100 µM [3] of 81.5 ± 4.7%.

With `O=C(/C=C/c1ccccc1)c1cc(Cl)ccc1O` [Compound 1, (E)-1-(5-Chloro-2-hydroxyphenyl)-3-phenylprop-2-en-1-one] the IC50 [4] was 100 µM and 25.9 µg/mL, the IC50 [5] was 83.7 µM and 21.7 µg/mL and the IC50 [6] was 26.4 µM and 6.8 µg/mL. For the same compound, the IC50 [7] was 200 µM and 51.7 µg/mL, the IC50 [8] was 84.5 µM and 21.9 µg/mL and the CC50 at 72 h ([1]; read-out: CC50) was 174 µM. It also gave a CC50 at 72 h ([1]; read-out: CC50 [μg/mL]) of 45 µg/mL, an IC50 ([3]; read-out: IC50) of 52.8 µM and an IC50 ([3]; read-out: IC50 [μg/mL]) of 13.7 µg/mL. The inhibition at 100 µM [3] was 65.2 ± 3.9%, the IC50 [9] was 200 µM and 51.7 µg/mL and the IC50 [10] was 200 µM and 51.7 µg/mL. For the same compound, the IC50 [11] was 62.9 µM and 16.3 µg/mL, the IC50 [12] was 200 µM and 51.7 µg/mL and the IC50 [13] was 200 µM and 51.7 µg/mL.

For `C#CCOc1ccc(C(=O)/C=C/c2ccc(Cl)cc2Cl)c(OCC#C)c1` [Compound 23, (E)-1-(2,4-bis(prop-2-yn-1-yloxy)phenyl)-3-(2,4-dichlorophenyl)prop-2-en-1-one], the melting point was 166 to 168 °C, the inhibition at 100 µM [3] was 4.6 ± 13.8% and the “antifungal activity against C. albicans growth, in words” value (shortened to “antifungal activity”) [3] was “inactive”.

In the case of `CC(C)=CCOc1ccc(C(=O)/C=C/c2ccncc2)cc1` [Compound 33, (E)-1-(4-((3-methylbut-2-en-1-yl)oxy)phenyl)-3-(pyridin-4-yl)prop-2-en-1-one], the melting point is reported as 91 to 93 °C, the inhibition at 100 µM [3] is reported as under 1% and the “antifungal activity” value [3] is reported as “devoid of any effect”.

In the case of `C#CCOc1ccc(C(=O)/C=C/c2ccc(Cl)cc2Cl)c(OC)c1` [Compound 11, (E)-3-(2,4-dichlorophenyl)-1-(2-methoxy-4-(prop-2-yn-1-yloxy)phenyl)prop-2-en-1-one], the melting point is reported as 174 to 175 °C, the inhibition at 100 µM [3] is reported as 9.8 ± 6.7% and the “antifungal activity” value [3] is reported as “inactive”.
